Drawing on ChEMBL document CHEMBL5365419, “Identification of a Protein Arginine Methyltransferase 7 (PRMT7)/Protein Arginine Methyltransferase 9 (PRMT9) Inhibitor” (J Med Chem, 2023), this text covers inhibition for one compound.

Active and inactive are the calls of the source. The calls are words filed in the database; no cut-off is given here.

Experiment [1] has as its target Histone-lysine N-methyltransferase EZH2 (Homo sapiens) (UniProt Q15910). Nature of the experiment: Inhibition of N-terminal His-tagged human full-length recombinant EZH2 (2 to 746 residues) in PRC2 complex at higher concentration using core histone as substrate and 3H-SAM as cosubstrate incubated for 60 mins by scintillation counter analysis.
The species named for experiment [2] is Homo sapiens. Put plainly: Inhibition of N-terminal/C-terminal His-tagged human recombinant MLL1 (3745 to 3969 residues)/WDR5 (22 to 334 residues)/RbBP5 (1 to 538 residues)/ASH2L (2 to 534 residues)/DPY-30 (1 to 99 residues) complex at higher concentration using oligo nucleosomes as substrate and 3H-SAM as cosubstrate incubated for 60 mins by scintillation counter analysis.

Experiment [3] deals with T1, Protein arginine N-methyltransferase 7 (Homo sapiens) (UniProt Q9NVM4).
T1 sequence (whole entry): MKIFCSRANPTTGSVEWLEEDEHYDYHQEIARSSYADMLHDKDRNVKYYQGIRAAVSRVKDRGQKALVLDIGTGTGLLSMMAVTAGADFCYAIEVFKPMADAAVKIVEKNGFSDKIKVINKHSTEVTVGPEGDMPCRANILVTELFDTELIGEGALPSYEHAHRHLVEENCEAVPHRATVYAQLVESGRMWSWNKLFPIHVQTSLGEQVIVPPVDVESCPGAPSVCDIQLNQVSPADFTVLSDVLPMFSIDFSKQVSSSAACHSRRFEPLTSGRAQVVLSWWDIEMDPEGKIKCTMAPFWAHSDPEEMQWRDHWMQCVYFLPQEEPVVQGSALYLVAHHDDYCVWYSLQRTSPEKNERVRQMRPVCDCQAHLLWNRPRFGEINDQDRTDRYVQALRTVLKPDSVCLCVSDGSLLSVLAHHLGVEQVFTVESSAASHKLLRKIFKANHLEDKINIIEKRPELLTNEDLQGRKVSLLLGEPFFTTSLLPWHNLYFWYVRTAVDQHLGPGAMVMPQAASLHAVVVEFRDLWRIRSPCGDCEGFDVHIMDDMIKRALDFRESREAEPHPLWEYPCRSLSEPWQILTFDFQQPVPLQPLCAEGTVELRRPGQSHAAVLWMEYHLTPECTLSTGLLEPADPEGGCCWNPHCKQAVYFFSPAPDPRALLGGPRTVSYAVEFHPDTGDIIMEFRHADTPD
Nature of the experiment: Inhibition of PRMT7 catalysed methylation of HSP70 at R469 residue in HEK293T cells assessed as increase in ratio of abundance of unmethylated over methylated peptides measured after 24 to 48 hrs by UHPLC- MS/MS analysis. It counts as cell-based. The following applies: dose 10-50 µM, time 24-48 hrs.

The target of experiment [4] is T1, Protein arginine N-methyltransferase 7 (Homo sapiens). Put plainly: Inhibition of PRMT7 catalysed methylation of HNRNPA1 at R194 residue in HEK293T cells assessed as increase in ratio of abundance of unmethylated over methylated peptides measured after 24 to 48 hrs by UHPLC- MS/MS analysis. Type of experiment: cell-based. The following applies: dose 10-50 µM, time 24-48 hrs.

Experiment [5] has as its target T2, Histone-lysine N-methyltransferase SETD7 (Homo sapiens) (UniProt Q8WTS6).
T2 sequence (whole entry): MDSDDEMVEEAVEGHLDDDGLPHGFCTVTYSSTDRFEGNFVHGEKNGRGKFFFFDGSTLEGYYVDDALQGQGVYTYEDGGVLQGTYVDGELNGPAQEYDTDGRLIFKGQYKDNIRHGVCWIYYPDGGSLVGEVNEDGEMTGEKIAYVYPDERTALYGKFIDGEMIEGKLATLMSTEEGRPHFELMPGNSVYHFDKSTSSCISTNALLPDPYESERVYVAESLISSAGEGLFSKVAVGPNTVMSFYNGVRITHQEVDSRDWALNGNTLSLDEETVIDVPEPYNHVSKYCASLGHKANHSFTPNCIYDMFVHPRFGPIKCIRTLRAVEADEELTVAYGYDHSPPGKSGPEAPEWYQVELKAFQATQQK
Nature of the experiment: Inhibition of N-terminal/C-terminal His/GST-tagged human recombinant SET7/9 (2 to 366 residues) at higher concentration using core histone as substrate and 3H-SAM as cosubstrate incubated for 60 mins by scintillation counter analysis.

For experiment [6], the target named is Histone-lysine N-methyltransferase ASH1L (Homo sapiens) (UniProt Q9NR48). Put plainly: Inhibition of N-terminal His-tagged human recombinant ASH1L (2046 to 2330 residues) at higher concentration using oligo nucleosomes as substrate and 3H-SAM as cosubstrate incubated for 60 mins by scintillation counter analysis.
Experiment [7] has as its target T1, Protein arginine N-methyltransferase 7 (Homo sapiens). Nature of the experiment: Inhibition of PRMT7 catalysed methylation of HSP70 at R469 residue in HEK293T cells assessed as increase in ratio of abundance of unmethylated over methylated peptides at 10 to 50 uM by UHPLC- MS/MS analysis. It counts as cell-based. The following applies: dose 10-50 µM, time 24-48 hrs, TDE = time-dependent effect.

Experiment [8] has the same target. Nature of the experiment: Inhibition of PRMT7 catalysed methylation of HSP70 at R469 residue in HEK293T cells assessed as increase in ratio of abundance of unmethylated over methylated peptides at 10 to 50 uM measured after 24 to 48 hrs by UHPLC- MS/MS analysis. It counts as cell-based. Conditions: dose 10-50 µM, time 24-48 hrs.
The target in experiment [9] is Histone-lysine N-methyltransferase SUV39H2 (Homo sapiens) (UniProt Q9H5I1). Nature of the experiment: Inhibition of N-terminal/C-terminal His/GST-tagged human recombinant SUV39H2 (46 to 410 residues) at higher concentration using H3 histone as substrate and 3H-SAM as cosubstrate incubated for 60 mins by scintillation counter analysis.
Sequence of Histone-lysine N-methyltransferase SUV39H2 (Homo sapiens) (Q9H5I1 whole entry, the tested form may be a part): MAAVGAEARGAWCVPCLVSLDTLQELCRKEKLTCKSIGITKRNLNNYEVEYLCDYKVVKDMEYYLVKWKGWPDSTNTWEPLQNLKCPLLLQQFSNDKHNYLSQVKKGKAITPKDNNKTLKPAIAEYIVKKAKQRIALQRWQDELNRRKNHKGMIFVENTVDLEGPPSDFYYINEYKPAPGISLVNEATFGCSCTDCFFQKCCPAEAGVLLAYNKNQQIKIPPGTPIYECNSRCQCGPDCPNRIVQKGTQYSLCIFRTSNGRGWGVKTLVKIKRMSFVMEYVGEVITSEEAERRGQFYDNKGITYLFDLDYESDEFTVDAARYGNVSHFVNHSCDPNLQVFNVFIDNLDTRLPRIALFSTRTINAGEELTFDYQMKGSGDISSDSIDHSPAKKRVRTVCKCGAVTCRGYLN
In experiment [10] the target is T1, Protein arginine N-methyltransferase 7 (Homo sapiens). Nature of the experiment: Inhibition of PRMT7 catalysed methylation of HNRNPA1 at R194 residue in HEK293T cells assessed as increase in ratio of abundance of unmethylated over methylated peptides at 10 to 50 uM by UHPLC- MS/MS analysis. Type of experiment: cell-based. Conditions: dose 10-50 µM, time 24-48 hrs, TDE = time-dependent effect.

The target in experiment [11] is T3, Histone-lysine N-methyltransferase SMYD3 (Homo sapiens) (UniProt Q9H7B4).
T3 sequence (whole entry): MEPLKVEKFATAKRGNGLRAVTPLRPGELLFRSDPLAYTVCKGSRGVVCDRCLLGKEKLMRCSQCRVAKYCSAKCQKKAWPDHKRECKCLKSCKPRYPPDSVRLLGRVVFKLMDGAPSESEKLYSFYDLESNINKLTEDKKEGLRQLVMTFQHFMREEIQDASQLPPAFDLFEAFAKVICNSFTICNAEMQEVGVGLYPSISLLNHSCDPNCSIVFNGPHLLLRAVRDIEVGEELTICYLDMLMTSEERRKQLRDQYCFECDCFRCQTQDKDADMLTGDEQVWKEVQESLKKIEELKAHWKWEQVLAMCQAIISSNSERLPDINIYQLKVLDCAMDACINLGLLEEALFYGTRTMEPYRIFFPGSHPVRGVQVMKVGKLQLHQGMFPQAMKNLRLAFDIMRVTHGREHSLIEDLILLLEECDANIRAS
Nature of the experiment: Inhibition of C-terminal His/GST-tagged human recombinant SMYD3 (2 to 428 residues) at higher concentration using 3H-SAM as substrate incubated for 60 mins by scintillation counter analysis.

Sequence of Histone-lysine N-methyltransferase EZH2 (Homo sapiens) (Q15910 whole entry, looked up, the tested form may be a part): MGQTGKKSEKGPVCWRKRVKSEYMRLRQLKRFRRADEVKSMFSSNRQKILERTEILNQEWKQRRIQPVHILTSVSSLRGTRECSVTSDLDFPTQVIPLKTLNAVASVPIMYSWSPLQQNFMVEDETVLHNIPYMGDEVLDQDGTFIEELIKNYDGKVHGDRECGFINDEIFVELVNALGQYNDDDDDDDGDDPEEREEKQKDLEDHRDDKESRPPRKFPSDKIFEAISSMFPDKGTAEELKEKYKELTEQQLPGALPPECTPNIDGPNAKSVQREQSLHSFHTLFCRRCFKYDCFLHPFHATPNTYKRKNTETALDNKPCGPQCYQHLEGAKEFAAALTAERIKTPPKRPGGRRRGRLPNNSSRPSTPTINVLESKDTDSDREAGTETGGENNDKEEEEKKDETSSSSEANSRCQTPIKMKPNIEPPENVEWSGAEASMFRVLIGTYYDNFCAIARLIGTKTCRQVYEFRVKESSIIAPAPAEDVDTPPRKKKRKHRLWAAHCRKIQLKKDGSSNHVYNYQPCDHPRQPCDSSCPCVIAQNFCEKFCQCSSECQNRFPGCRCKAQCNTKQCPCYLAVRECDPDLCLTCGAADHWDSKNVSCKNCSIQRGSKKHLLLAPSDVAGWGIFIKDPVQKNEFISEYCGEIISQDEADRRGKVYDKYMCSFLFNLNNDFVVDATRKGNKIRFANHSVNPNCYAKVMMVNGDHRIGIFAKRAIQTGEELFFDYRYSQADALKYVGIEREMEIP

As for `COC(=O)c1cc(O)c2cc(NC(=O)NCCCNC(=N)NC[C@H]3O[C@@H](n4cnc5c(N)ncnc54)[C@H](O)[C@@H]3O)cc(C(F)(F)F)c2c1`, the inhibition result in [1], in experiment [2], in experiment [5], in [6], in experiment [9] and in [11] was “inactive” each time. Moreover, the inhibition entry was “Dose-Dependent Effect” in experiment [3], “Dose-Dependent Effect” in experiment [4], “Tde” in [7] and “Tde” in [10]. In experiment [8], the inhibition entry is “Active”.
